Results taken from PMC12372887, “Mechanism and cellular actions of the potent AMPK inhibitor BAY-3827” (Science Advances, 2025).

Tests used:
Assay in all cases: Kinase panel (140 human kinases)
Type in all cases: biochemical
EPH-A2 = EPH-A2 (Homo sapiens, UniProt P29317)
In short: (§1)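 Duplicate radiometric filter-binding measurements with [γ-^33P]ATP gave percent residual activity, mean and SD. Tested concentrations: 0.1 μM and, for BAY-3827, 1 μM. ATP set per kinase to 5, 20 or 50 μM, not above Km.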

TSSK1 = TSSK1 (Homo sapiens, UniProt Q9BXA7)
In short: as §1

TrkA = TrkA (Homo sapiens, UniProt P04629)
In short: as §1

MNK2 = MNK2 (Homo sapiens, UniProt Q9HBH9)
In short: as §1

TIE2 = TIE2 (Homo sapiens, UniProt Q02763)
In short: as §1

PDGFRA = PDGFRA (Homo sapiens, UniProt P16234)
In short: as §1

WNK1 = WNK1 (Homo sapiens, UniProt Q9H4A3)
In short: as §1

IKKb = biological target: T1, IKKb (Homo sapiens, UniProt O14920)
T1 sequence (O14920 1-756): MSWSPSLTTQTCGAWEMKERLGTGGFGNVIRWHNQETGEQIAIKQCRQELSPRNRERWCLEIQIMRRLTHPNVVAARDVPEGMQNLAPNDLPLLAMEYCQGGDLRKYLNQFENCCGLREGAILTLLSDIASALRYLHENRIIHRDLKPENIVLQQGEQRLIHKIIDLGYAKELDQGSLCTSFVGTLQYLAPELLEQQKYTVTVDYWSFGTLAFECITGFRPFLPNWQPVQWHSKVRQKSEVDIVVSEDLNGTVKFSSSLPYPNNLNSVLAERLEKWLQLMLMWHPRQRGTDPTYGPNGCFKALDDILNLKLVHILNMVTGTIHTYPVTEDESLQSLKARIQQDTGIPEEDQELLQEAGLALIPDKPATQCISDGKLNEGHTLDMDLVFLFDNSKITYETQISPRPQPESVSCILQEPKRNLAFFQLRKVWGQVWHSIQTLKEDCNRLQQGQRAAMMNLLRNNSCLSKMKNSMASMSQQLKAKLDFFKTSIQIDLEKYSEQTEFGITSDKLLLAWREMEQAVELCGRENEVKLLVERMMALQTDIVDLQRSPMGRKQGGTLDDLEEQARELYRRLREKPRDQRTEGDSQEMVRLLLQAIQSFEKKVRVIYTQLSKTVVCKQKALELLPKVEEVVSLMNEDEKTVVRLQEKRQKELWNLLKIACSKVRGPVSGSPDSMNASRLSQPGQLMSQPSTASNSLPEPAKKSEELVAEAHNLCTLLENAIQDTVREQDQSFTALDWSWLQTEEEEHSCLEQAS
In short: as §1

TAO1 = TAO1 (Homo sapiens, UniProt Q7L7X3)
In short: as §1

ZAP70 = ZAP70 (Homo sapiens, UniProt P43403)
In short: as §1

MNK1 = MNK1 (Homo sapiens, UniProt Q9BUB5)
In short: as §1

TTBK1 = TTBK1 (Homo sapiens, UniProt Q5TCY1)
In short: as §1

TAK1 = biological target: T2, TAK1 (Homo sapiens, UniProt O43318)
T2 sequence (O43318 1-303 limits assumed): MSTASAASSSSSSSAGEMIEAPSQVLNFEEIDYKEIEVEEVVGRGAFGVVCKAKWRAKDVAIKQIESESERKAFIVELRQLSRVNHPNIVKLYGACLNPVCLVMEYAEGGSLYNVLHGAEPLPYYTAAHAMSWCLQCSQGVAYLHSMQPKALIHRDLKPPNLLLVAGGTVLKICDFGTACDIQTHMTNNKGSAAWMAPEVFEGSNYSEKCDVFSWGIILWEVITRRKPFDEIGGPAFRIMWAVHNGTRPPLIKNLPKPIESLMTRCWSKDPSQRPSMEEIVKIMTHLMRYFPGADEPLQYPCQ
In short: as §1

EPH-B2 = EPH-B2 (Homo sapiens, UniProt P29323)
In short: as §1

Src = Src (Homo sapiens, UniProt P12931)
In short: as §1

DYRK1A = DYRK1A (Homo sapiens, UniProt Q13627)
In short: as §1

SYK = SYK (Homo sapiens, UniProt P43405)
In short: as §1

HIPK2 = HIPK2 (Homo sapiens, UniProt Q9H2X6)
In short: as §1

EPH-B4 = EPH-B4 (Homo sapiens, UniProt P54760)
In short: as §1

MAP4K3 = MAP4K3 (Homo sapiens, UniProt Q8IVH8)
In short: as §1

PAK2 = PAK2 (Homo sapiens, UniProt Q13177)
In short: as §1

MARK3 = MARK3 (Homo sapiens, UniProt P27448)
In short: as §1

EF2K = EF2K (Homo sapiens, UniProt O00418)
In short: as §1

MLK1 = MLK1 (Homo sapiens, UniProt P80192)
In short: as §1

PINK = PINK (Tribolium castaneum, UniProt D6WMX4)
In short: as §1

EPH-B3 = EPH-B3 (Homo sapiens, UniProt P54753)
In short: as §1

MST2 = MST2 (Homo sapiens, UniProt Q13188)
In short: as §1

[1] = 1 μM, cross-referenced with screen data of ref 37, read-out: activity remaining after treatment

Sequence of WNK1 (Q9H4A3 whole entry): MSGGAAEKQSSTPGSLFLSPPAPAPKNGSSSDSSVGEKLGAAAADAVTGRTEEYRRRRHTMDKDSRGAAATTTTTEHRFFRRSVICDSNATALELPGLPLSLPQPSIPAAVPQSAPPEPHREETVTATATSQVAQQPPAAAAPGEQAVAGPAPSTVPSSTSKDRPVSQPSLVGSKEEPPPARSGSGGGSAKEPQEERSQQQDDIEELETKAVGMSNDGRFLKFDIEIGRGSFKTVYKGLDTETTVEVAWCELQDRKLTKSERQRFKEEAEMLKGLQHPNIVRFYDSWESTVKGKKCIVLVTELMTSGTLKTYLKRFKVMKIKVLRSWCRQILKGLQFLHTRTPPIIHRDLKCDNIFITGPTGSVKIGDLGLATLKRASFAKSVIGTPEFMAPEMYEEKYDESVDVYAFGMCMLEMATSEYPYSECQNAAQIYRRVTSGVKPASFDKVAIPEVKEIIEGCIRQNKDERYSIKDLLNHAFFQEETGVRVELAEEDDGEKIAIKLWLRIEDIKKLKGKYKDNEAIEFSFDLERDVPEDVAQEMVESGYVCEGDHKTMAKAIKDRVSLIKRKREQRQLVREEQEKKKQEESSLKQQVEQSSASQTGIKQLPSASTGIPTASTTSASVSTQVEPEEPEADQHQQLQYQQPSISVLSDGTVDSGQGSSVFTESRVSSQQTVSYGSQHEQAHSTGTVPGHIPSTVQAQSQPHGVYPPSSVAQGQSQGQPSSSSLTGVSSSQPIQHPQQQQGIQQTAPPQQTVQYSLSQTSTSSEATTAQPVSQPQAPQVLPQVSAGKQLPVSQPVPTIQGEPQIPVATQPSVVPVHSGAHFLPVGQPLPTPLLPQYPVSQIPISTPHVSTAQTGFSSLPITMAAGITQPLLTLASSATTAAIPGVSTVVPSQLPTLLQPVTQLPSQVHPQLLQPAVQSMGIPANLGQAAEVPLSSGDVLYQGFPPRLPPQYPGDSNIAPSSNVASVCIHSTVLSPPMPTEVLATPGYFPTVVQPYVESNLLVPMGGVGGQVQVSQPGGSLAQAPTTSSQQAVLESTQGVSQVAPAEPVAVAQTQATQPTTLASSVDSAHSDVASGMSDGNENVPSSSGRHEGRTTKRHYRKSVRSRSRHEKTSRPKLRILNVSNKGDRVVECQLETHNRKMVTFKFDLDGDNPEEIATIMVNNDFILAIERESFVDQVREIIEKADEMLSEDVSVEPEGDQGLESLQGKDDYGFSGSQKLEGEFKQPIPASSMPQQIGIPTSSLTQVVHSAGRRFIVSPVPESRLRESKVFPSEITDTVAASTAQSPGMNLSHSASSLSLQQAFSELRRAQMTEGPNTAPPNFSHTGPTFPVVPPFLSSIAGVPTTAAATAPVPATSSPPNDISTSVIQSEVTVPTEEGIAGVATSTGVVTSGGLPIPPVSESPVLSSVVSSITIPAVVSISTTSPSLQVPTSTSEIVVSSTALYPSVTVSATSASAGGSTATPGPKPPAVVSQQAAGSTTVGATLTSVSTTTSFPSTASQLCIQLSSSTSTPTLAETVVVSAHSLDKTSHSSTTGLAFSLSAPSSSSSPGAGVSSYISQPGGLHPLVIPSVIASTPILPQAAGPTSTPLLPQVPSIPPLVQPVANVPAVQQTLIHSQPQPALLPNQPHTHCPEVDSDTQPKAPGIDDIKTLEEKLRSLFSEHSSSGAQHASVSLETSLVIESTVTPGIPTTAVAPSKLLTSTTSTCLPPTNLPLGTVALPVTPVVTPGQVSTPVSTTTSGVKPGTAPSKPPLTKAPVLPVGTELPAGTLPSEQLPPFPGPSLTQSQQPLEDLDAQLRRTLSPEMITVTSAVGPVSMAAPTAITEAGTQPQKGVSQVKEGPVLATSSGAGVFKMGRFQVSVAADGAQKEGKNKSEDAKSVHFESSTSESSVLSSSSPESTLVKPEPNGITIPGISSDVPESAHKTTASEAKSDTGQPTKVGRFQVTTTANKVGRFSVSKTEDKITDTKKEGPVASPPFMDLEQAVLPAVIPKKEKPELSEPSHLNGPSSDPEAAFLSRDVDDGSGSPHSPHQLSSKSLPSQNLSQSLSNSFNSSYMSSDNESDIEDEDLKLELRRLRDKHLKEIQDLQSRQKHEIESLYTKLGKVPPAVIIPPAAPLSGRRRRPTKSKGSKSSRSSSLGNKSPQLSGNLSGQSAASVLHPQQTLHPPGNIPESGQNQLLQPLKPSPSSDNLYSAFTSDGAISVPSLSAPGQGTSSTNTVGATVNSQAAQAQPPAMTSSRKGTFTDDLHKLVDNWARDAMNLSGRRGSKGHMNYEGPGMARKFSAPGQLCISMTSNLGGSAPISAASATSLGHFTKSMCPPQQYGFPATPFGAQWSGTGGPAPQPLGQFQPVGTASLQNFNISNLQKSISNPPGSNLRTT
Sequence of TTBK1 (Q5TCY1 whole entry): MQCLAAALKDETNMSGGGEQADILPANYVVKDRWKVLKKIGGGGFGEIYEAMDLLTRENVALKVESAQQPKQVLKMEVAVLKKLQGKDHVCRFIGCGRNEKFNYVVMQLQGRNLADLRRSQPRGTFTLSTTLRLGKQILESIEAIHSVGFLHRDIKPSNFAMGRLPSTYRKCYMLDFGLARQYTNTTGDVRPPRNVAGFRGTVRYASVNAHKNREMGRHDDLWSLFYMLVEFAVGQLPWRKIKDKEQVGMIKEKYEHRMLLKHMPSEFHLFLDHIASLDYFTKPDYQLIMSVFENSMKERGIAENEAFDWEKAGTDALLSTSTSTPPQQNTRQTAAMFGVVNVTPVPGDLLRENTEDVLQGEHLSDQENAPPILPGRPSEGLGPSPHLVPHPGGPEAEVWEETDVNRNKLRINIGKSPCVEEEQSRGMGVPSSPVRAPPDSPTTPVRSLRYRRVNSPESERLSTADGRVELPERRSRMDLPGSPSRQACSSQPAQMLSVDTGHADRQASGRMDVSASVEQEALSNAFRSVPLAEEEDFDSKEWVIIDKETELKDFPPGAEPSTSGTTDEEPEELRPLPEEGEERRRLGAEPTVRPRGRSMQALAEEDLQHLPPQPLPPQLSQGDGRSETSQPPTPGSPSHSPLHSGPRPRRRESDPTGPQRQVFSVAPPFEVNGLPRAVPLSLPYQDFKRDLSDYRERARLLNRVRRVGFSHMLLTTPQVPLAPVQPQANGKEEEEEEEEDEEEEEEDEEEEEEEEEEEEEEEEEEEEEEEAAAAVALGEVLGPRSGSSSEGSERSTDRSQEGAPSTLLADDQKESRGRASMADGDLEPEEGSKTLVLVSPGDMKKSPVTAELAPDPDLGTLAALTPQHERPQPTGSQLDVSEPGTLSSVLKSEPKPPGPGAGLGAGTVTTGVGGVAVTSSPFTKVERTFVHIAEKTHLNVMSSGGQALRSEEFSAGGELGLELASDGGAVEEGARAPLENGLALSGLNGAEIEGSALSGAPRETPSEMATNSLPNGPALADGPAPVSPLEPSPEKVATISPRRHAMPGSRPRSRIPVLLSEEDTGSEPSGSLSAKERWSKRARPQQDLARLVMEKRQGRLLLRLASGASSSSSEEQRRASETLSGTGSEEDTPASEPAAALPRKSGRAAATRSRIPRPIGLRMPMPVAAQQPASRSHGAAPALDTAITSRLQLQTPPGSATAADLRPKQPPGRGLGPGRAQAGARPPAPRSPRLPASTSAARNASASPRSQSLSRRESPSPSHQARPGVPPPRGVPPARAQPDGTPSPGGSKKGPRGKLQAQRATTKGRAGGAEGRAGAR
Sequence of TIE2 (Q02763 23-1124): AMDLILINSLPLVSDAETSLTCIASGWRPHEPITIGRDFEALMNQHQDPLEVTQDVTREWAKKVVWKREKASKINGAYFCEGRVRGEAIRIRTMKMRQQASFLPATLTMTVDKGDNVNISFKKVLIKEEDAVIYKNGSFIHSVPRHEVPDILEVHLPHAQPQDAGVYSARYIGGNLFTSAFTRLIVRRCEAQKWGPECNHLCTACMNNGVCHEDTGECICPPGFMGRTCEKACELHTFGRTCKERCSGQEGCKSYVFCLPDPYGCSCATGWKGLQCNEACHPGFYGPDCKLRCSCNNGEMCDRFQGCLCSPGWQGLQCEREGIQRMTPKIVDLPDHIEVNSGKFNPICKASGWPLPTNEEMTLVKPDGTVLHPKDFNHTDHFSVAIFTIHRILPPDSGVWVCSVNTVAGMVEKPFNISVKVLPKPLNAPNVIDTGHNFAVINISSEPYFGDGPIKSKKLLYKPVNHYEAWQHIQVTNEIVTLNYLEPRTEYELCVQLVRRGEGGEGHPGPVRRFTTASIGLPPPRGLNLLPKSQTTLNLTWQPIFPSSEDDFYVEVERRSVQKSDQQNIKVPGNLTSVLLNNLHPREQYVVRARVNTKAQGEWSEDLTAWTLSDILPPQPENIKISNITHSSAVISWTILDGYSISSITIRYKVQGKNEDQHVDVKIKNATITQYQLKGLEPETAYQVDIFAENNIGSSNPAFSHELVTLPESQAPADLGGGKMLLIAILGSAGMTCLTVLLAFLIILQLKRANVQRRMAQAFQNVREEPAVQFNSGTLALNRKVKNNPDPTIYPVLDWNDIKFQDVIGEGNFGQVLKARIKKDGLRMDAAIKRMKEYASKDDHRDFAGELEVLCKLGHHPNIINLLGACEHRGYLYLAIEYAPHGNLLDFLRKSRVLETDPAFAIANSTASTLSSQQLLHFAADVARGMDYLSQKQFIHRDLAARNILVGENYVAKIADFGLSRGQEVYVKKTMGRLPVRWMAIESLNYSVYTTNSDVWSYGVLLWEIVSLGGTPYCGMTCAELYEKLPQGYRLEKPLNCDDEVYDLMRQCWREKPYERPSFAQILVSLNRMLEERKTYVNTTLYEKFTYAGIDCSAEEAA

CC1=C(C#N)C(c2ccc3c(c2)c(NC(=O)c2ccccc2C)nn3C)C(C#N)=C(C)N1 [BAY-974, N-[5-(3,5-dicyano-2,6-dimethyl-1,4-dihydropyridin-4-yl)-1-methylindazol-3-yl]-2-methylbenzamide]
remaining activity at 0.1 µM (EPH-A2): 109%
remaining activity at 0.1 µM (TSSK1): 55%
remaining activity at 0.1 µM (TrkA): 97%
remaining activity at 0.1 µM (MNK2): 98%
remaining activity at 0.1 µM (TIE2): 103%
remaining activity at 0.1 µM (PDGFRA): 86%
remaining activity at 0.1 µM (WNK1): 117%
remaining activity at 0.1 µM (IKKb): 89%
remaining activity at 0.1 µM (TAO1): 88%
remaining activity at 0.1 µM (ZAP70): 94%
remaining activity at 0.1 µM (MNK1): 100%
remaining activity at 0.1 µM (TTBK1): 104%
remaining activity at 0.1 µM (TAK1): 93%
remaining activity at 0.1 µM (EPH-B2): 82%
remaining activity at 0.1 µM (Src): 92%
remaining activity at 0.1 µM (DYRK1A): 101%
inhibition at 0.1 µM (SYK): 55 to 90%
remaining activity at 0.1 µM (HIPK2): 108%
remaining activity at 0.1 µM (EPH-B4): 116%
remaining activity at 0.1 µM (MAP4K3): 73%
remaining activity at 0.1 µM (PAK2): 88%
remaining activity at 0.1 µM (MARK3): 80%
remaining activity at 0.1 µM (EF2K): 119%
remaining activity at 0.1 µM (MLK1): 90%
remaining activity at 0.1 µM (PINK): 95%
remaining activity at 0.1 µM (EPH-B3): 119%
remaining activity at 0.1 µM (MST2): 94%

CCc1ccccc1C(=O)Nc1n[nH]c2c(C)c(F)c(C3C(C#N)=C(C)N(C)C(C)=C3C#N)cc12 [BAY-3827, N-[5-(3,5-dicyano-1,2,6-trimethyl-4H-pyridin-4-yl)-6-fluoro-7-methyl-1H-indazol-3-yl]-2-ethylbenzamide]
remaining activity at 0.1 µM (EPH-A2): 114%
remaining activity at 0.1 µM (TSSK1): 88%
remaining activity at 0.1 µM (TrkA): 87%
remaining activity at 0.1 µM (MNK2): 99%
remaining activity at 0.1 µM (TIE2): 69%
remaining activity at 0.1 µM (PDGFRA): 82%
remaining activity at 0.1 µM (WNK1): 101%
remaining activity at 1 µM (WNK1; [1]): ≥ 99%
remaining activity at 0.1 µM (IKKb): 105%
remaining activity at 1 µM (IKKb; 1 μM, IKKβ, cross-referenced with screen data of ref 37, read-out: activity remaining after treatment): ≥ 99%
remaining activity at 0.1 µM (TAO1): 94%
remaining activity at 0.1 µM (ZAP70): 96%
remaining activity at 0.1 µM (MNK1): 126%
remaining activity at 0.1 µM (TTBK1): 101%
remaining activity at 1 µM (TTBK1; [1]): ≥ 99%
remaining activity at 0.1 µM (TAK1): 118%
remaining activity at 1 µM (TAK1; [1]): ≥ 99%
remaining activity at 0.1 µM (EPH-B2): 98%
remaining activity at 0.1 µM (Src): 90%
remaining activity at 0.1 µM (DYRK1A): 96%
remaining activity at 0.1 µM (SYK): 91%
remaining activity at 0.1 µM (HIPK2): 121%
remaining activity at 0.1 µM (EPH-B4): 109%
remaining activity at 0.1 µM (MAP4K3): 82%
remaining activity at 0.1 µM (PAK2): 88%
remaining activity at 0.1 µM (MARK3): 98%
remaining activity at 0.1 µM (EF2K): 91%
remaining activity at 0.1 µM (MLK1): 89%
remaining activity at 0.1 µM (PINK): 90%
remaining activity at 0.1 µM (EPH-B3): 84%
remaining activity at 0.1 µM (MST2): 85%
